Assay [1] has as its system SiHa cells. Put plainly: SiHa cell viability IC50 (CCK-8). The format is cell-based, human. The conditions noted are these: Homo sapiens; parental SiHa cells, 36 h; read-out: IC50, inhibition of SiHa cell viability. How it is done:
NAT10^± SiHa cells and SiHa cells treated with DMSO, Remodelin or NP1192 for 36 h were seeded into the wells of a 96-well microplate at identical densities of 2000 or 3000 cells per well. After the cells adhered to the well surface, 110 μL of a 1:10 mixture of CCK-8 reagent (Meilunbio, China) and RPMI 1640 medium was added to each well. The microplate was then incubated for another 2 h in the incubator, and the mixture was replaced with an equal volume of medium. A microplate reader (BioTek, US) was used to measure the absorption at a wavelength of 450 nm.

The test system of assay [2] is Remodelin^Resist SiHa cells. Description: IC50 and resistance index in Remodelin-resistant SiHa cells (CCK-8). It counts as cell-based, human. On the procedure:
We generated Remodelin-resistant (Remodelin^Resist SiHa) and NP1192-resistant (NP1192^Resist SiHa) SiHa CCa cell lines by applying a stepwise dose escalation strategy, as previously described in the literature. To quantitatively assess resistance, we calculated the resistance index for each subline following the established methodologies. Briefly, 3000 cells per well were seeded in 96-well plates and treated with increasing concentrations of Remodelin or NP1192 (0, 10, 50, 100, and 150 μM) for 24 h. Following treatment, 10 μL of CCK-8 reagent was added to each well and incubated for an additional 2 h. Absorbance at 490 nm was measured, and the IC50 values were calculated using GraphPad Prism 9.0. The RI was defined as the ratio of the IC50 in resistant cells to that in parental cells.

The test system of assay [3] is SiHa cells. Put plainly: Colony formation assay in SiHa cells. It counts as cell-based, human. Particulars: pretreated 20 μM 36 h, 2 weeks. On the procedure: NAT10^± SiHa cells and SiHa cells treated with DMSO, Remodelin or NP1192 for 36 h were seeded into the wells of a 6-well microplate at identical densities of 2000 or 3000 cells per well. The cells were then incubated in the incubator for at least 2 weeks to form colonies. After the incubation period, the cells were fixed with formalin and then stained with crystal violet. The colonies were then counted via a microscope. The number and size of the colonies in the experimental groups were compared.

Assay [4] concerns CD8+ TILs, M2 macrophages, MDSCs and Treg cells in U14 xenograft tumors. Particulars: Figure 7A.
Description: U14 cells (1 × 10^7 cells per mouse, approximately 100–150 μL of cell suspension) were implanted subcutaneously into the lateral lower dorsal surface of each mouse. The tumors were allowed to grow for 7 days, and the mice were then administered one of five treatments (group 1: U14 cells + DMSO; group 2: U14 cells + Remodelin; group 3: U14 cells + anti-PD-L1 antibody; group 4: U14 cells + NP1192; group 5: U14 cells + anti-PD-L1 antibody + NP1192). Each group of mice was assigned according to the principles of randomization and the blinding method. Tumors were measured every 2 days, and tumor volume was calculated via the following equation: volume = (width)^2 × length/2. Remodelin and NP1192 were injected into the peritumoral area every 2 days at a dose of 25 mg/kg, and the in vivo antimouse PD-L1 antibody (low endotoxin) was injected every 3 days at a dose of 2.5 mg/kg.
After the mice were euthanized, the tumor and peritumoral tissues were analyzed with an immunoflow kit (BioLegend, USA). The antibodies used for immunoflow cytometry included antihuman/mouse antibodies specific for CD11b-BV711, F4/80-AF647, CD206-PE, CD86-BV605, CD4-CD4-FITC IL-17-17-CY7/CY7, CD25-PE, FOXP3-AF647, CD4-BV605, CD45-PE/CY7, CD11b-BV711 and LY-6G/LY-6C-BV421 (BioLegend catalog no. 321239, RRID:AB_2860843). All data analyses were performed via GraphPad Prism 9, and the data are presented as the mean ± SEMs.
The target of a further assay is T1, NAT10 (Homo sapiens, UniProt Q9H0A0).
T1 construct: depletion of total NAT10 protein in SiHa (human) and U14 (murine) CCa cell lines; endogenous in cells; host or cells: SiHa (human cervical cancer cell line)
T1 sequence (Q9H0A0 1-1025): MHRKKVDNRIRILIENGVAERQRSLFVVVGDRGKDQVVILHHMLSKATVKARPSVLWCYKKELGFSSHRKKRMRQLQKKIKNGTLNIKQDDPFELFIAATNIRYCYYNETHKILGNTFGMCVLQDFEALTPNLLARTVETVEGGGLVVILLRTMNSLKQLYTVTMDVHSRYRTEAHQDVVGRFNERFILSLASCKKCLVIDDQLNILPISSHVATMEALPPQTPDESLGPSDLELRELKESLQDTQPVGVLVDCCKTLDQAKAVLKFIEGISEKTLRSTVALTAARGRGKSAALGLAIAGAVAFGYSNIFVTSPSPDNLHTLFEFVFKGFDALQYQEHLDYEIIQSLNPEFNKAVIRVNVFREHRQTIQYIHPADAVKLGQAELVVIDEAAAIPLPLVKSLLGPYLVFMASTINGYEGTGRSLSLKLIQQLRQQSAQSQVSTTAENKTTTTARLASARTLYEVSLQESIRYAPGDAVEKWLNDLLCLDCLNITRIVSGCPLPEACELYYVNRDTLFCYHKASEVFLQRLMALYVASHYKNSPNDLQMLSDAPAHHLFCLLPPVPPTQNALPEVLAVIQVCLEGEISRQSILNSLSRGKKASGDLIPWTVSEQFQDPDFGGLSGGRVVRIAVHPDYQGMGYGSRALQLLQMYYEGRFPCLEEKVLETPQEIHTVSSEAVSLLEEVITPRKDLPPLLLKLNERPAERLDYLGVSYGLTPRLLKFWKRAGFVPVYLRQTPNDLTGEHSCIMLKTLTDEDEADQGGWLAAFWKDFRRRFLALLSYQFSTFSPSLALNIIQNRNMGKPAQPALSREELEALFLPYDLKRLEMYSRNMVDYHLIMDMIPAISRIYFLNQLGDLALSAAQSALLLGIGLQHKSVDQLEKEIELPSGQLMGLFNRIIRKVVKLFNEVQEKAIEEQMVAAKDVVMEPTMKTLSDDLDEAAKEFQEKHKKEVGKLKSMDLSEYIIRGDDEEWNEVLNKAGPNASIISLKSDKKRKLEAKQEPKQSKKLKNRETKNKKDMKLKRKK
Description: NAT10 degradation in SiHa cells, Western blot. The format is cell-based. Particulars: SiHa cells; for effect of cotreatment on NP1192-mediated degradation of NAT10: inhibitor 200 nM for 12 h, then NP1192 for 36 h. How it is done: The human CCa cell line SiHa and the normal epithelial foreskin fibroblast line HFF-1 were purchased from the Cell Bank of the Chinese Academy of Sciences. Additionally, murine cervical carcinoma cell line U14 (RRID:CVCL_9U56) was purchased from Boster Company. HFF-1 and U14 cells were cultured in Dulbecco’s modified Eagle’s medium (DMEM) (Gibco, USA) supplemented with 10% heat-inactivated fetal bovine serum (FBS; Gibco, USA), while SiHa cells were incubated in RPMI 1640 medium (Gibco, USA) in a humid atmosphere with 5% CO2 at 37 °C. For hypoxia exposure, the cells were incubated in a sealed culture tank containing 5% CO2 and 0.1% O2 (MGC, Japan) for 36 h.
RIPA lysis buffer (Beyotime, China) mixed with 1% protease inhibitor (Sigma, US) was added to the cells, and a sample of total protein was obtained and then loaded onto an 8% or 12% polyacrylamide gel. The gel was placed in a buffer solution, and an electric current was applied. The separated proteins were subsequently transferred from the gel onto a PVDF membrane. Next, the membrane was blocked with 5% milk for 1 h to prevent nonspecific antibody binding. The membranes were subsequently incubated with anti-NAT10 (1:1000, Abcam, USA), anti-PD-L1 (1:1000, Proteintech, China), anti-HIF-1α (1:1000, Abmart, China), and anti-β-tubulin (1:1000, Proteintech, China) primary antibodies for 12 h. Afterward, the membrane was sequentially washed with 1× TBST and incubated for 1 h with an antimouse secondary antibody (1:6000, Elabscience, China) or antirabbit secondary antibody (1:6000, Elabscience, China). The target proteins were detected via chemiluminescence with a ChemiDoc MP Imaging System (Bio-Rad, US).

SMILES strings stand for the structures. Where a SMILES comes first, the peptide text is derived from it. The star is where a group is joined. Cbz = O=C(OCc1ccccc1)*

As for `N#Cc1ccc(-c2csc(NN=C3CCCC3)n2)cc1` [Remodelin, reference compound], the IC50 in the assay on SiHa cells [1] worked out at 10.7 µM; in assay [2] (Homo sapiens, Remodelin^Resist SiHa cells) it was 497 µM. The “resistance index (RI = IC50 resistant/parental SiHa)” value in assay [2] (497.3/10.67) is listed as 46.60. Further, in the assay on SiHa cells [3], the colony formation capacity entry is on record as “minimal suppressive effects”. In assay [4] (CD4+CD25+FOXP3+), this molecule registered a Treg gate of 0.84%. For the same molecule, in assay [4] (CD11b+F4/80+CD206+), the “M2 (M2 macrophages gate)” value is on record as 21.24%. The MDSC gate in assay [4] (CD11b+LY-6G+) amounted to 58.69%. Further, the “CD8+ (CD8+ TILs gate)” value in assay [4] (tumors after treatment) is reported as 0.56%.

Molecule `N#Cc1ccc(-c2csc(N(CCCCC(=O)NCCCNc3cccc4c3C(=O)N(C3CCC(=O)NC3=O)C4=O)N=C3CCCC3)n2)cc1` (stereo not drawn) [NP1149] gave an NAT10 degradation on NAT10 (at 36 h, time course Figure 1G) of 20%. The same molecule returned an NAT10 degradation rate on NAT10 (panel TP1–32 at the same time and concentration, Figure 1E) of 23%.

Take `CO/C1=C\C(C)=C\[C@@H](C)[C@@H](O)[C@@H](C)C/C(C)=C/C=C/[C@H](OC)[C@@H]([C@@H](C)[C@@H](O)[C@H](C)[C@@]2(O)C[C@@H](O)[C@H](C)[C@@H](C(C)C)O2)OC1=O` [bafilomycin A1, reference compound]: the “effect of cotreatment on NP1192-mediated degradation of NAT10” value at NAT10 is given as “no discernible effect”.

In the case of `CC(C)C[C@@H](C=O)NC(=O)[C@H](CC(C)C)NC(=O)[C@H](CC(C)C)NC(=O)OCc1ccccc1` [MG132, reference compound] (Cbz-Leu-Leu-Leu-aldehyde), the “effect of cotreatment on NP1192-mediated degradation of NAT10” value on NAT10 is reported as “significantly impeded”.
